# In PMC5053523, “In Vitro Antibacterial Activity of Rhodanine Derivatives against Pathogenic Clinical Isolates” (PLoS ONE, 2016):
# Like-named read-outs stand apart in the source and are kept apart here.
# Legend:
# MRSA USA300 = experiment: MIC against MRSA USA300 with and without 4% human serum albumin; type: cell-based, Staphylococcus aureus; conditions: Staphylococcus aureus, read-out: MIC against MRSA USA300
# Procedure, shortened: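 MIC measured in tryptic soy broth spiked with 4% HSA and without it, using CLSI broth microdilution on MRSA USA300. Value reported is the lowest concentration preventing bacterial growth.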
# Bacillus Strains = experiment: Broth microdilution MIC50/MIC90 and MIC range, Bacillus strains panel; type: cell-based, Bacillus spp.; conditions: 10 Bacillus strains
# Source text: The broth microdilution technique was used, followed by subculturing on agar plates that were rhodanine—free. […] The MICs reported represent the lowest concentration of each compound necessary to inhibit bacterial growth and the MBCs represent the lowest concentration required to reduce the initial bacterial inoculum by ≥ 99.9%.
# Escherichia coli Δ acrAB = experiment: MIC against E. coli 1411 and AcrAB efflux pump deficient E. coli SM1411Δ acrAB; type: cell-based
# Procedure, shortened: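 Gram-negative MICs were determined for rhodanines alongside control antibiotics, each combined with sub-inhibitory colistin or PMBN. Further testing used the efflux-deficient E. coli SM1411ΔacrAB, missing the AcrAB multidrug pump.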
# Klebsiella pneumoniae = experiment: MIC with/without PMBN, Klebsiella pneumoniae; type: cell-based
# Procedure, shortened: (§1)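 Compounds plus sub-inhibitory colistin or PMBN; MIC against Gram-negatives, with control antibiotics in parallel.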
# [1] = test system: vancomycin resistant enterococci (VRE); experiment: Broth microdilution MIC50/MIC90, VRE panel; type: cell-based; conditions: Enterococcus, 10 VRE strains; for MIC90: VRE, read-out: MIC 90; for MIC50: read-out: MIC 50
# Acinetobacter baumannii [2] = experiment: Broth microdilution MIC, Acinetobacter baumannii; type: cell-based
# B. cereus = experiment: Broth microdilution MIC/MBC, B. cereus; type: cell-based; conditions: Bacillus cereus; for MBC: read-out: MBC; for MIC: read-out: MIC
# Source text: The broth microdilution technique was used, followed by subculturing on agar plates that were rhodanine—free.
# Mycobacterium smegmatis = experiment: Broth microdilution MIC/MBC, Mycobacterium smegmatis; type: cell-based; conditions: Mycolicibacterium smegmatis, ATCC14468, M. Smegmatis ATCC 14468; for MBC: read-out: MBC; for MIC: read-out: MIC
# Escherichia coli O157:H7 [3] = experiment: MIC with/without PMBN, Escherichia coli O157:H7; type: cell-based
# Procedure, shortened: as §1
# Salmonella Typhimurium = experiment: MIC with/without sub-MIC colistin, Salmonella Typhimurium; type: cell-based
# Procedure, shortened: as §1
# Bacillus anthracis = experiment: microbe, parasite or virus in culture; type: cell-based
# Candida albicans = experiment: MIC against Candida albicans; type: cell-based; conditions: table prints none, read-out: MIC
# Acinetobacter baumannii [4] = experiment: MIC with/without sub-MIC colistin, Acinetobacter baumannii; type: cell-based
# Procedure, shortened: as §1
# Escherichia coli O157:H7 [5] = experiment: MIC with/without sub-MIC colistin, Escherichia coli O157:H7; type: cell-based
# Procedure, shortened: as §1
# [6] = E.coli 1411 SM (Δ acrAB, AcrAB efflux pump deficient)
# [7] = Klebsiella pneumoniae ATCC BAA 1706, PMBN (+) 4 μg/mL
# [8] = Klebsiella pneumoniae ATCC BAA 2146, PMBN (+) 4 μg/mL
# [9] = NRS201, B. cereus NRS 201 NR-2488
# [10] = Escherichia coli O157:H7 ATCC 35150, PMBN (+) 4 μg/mL, read-out: MIC
# [11] = Escherichia coli O157:H7 ATCC 700728, PMBN (+) 4 μg/mL, read-out: MIC
# [12] = Salmonella Typhimurium ATCC 700720, colistin (+) […], read-out: MIC
# [13] = Salmonella enterica, ATCC 700720 / TYPHIMURIUM
# [14] = ATCC10231, C. albicans ATCC 10231, unit from abstract
# [15] = C. albicans NR 29434, unit from abstract
# [16] = C. albicans NR 29435, unit from abstract
# [17] = C. albicans NR29437, unit from abstract
# [18] = C. albicans NR29438, unit from abstract
# [19] = C. albicans NR 29446, unit from abstract
# [20] = C. albicans NR 29448, unit from abstract
# [21] = C. albicans NR 29449, unit from abstract
# [22] = C. albicans NR 29453, unit from abstract
# [23] = C. albicans NR 294436, unit from abstract
# [24] = Acinetobacter baumannii ATCC BAA747, colistin (+) […], read-out: MIC
# [25] = Acinetobacter baumannii ATCC BAA19606, colistin (+) […], read-out: MIC
# [26] = Acinetobacter baumannii, ATCCBAA747
# [27] = Acinetobacter baumannii, ATCCBAA19606
# [28] = Escherichia coli O157:H7 ATCC 35150, colistin (+) […], read-out: MIC
# [29] = Escherichia coli O157:H7 ATCC 700728, colistin (+) […], read-out: MIC
compound,measurement,setting,value
O=C(O)[C@H](Cc1ccccc1)N1C(=O)/C(=C/c2cccc(OC/C=C/c3ccc(Cl)c(Cl)c3)c2)SC1=S [Rh 6],MIC,"MRSA USA300; 24 h, Media TSB + 4% HSA",> 64 µM
same,MIC,MRSA USA300; Media TSB,8 µM
same,MIC50,Bacillus Strains,4 µM
same,MIC90,Bacillus Strains,4 µM
same,MIC,Escherichia coli Δ acrAB; E.coli 1411,> 64 µM
same,MIC,Escherichia coli Δ acrAB; [6],> 64 µM
same,MIC,Klebsiella pneumoniae; [7],>64 µM
same,MIC,Klebsiella pneumoniae; [8],>64 µM
same,MIC,"Klebsiella pneumoniae; Klebsiella pneumoniae, BAA1706",> 128 µM
same,MIC,"Klebsiella pneumoniae; Klebsiella pneumoniae, BAA2146",> 128 µM
same,MIC90,[1],8 µM
same,MIC50,[1],8 µM
same,MIC,Acinetobacter baumannii [2]; ATCC13345,> 128 µM
same,MIC,Acinetobacter baumannii [2]; ATCC17786,> 128 µM
same,MBC,B. cereus; B. cereus BAG1O-2 NR-28582,4 µM
same,MIC,B. cereus; B. cereus BAG1O-2 NR-28582,4 µM
same,MBC,B. cereus; B. cereus BAG1X1-1 NR-28575,4 µM
same,MIC,B. cereus; B. cereus BAG1X1-1 NR-28575,4 µM
same,MBC,B. cereus; B. cereus BAG1X2-1 NR-28578,4 µM
same,MIC,B. cereus; B. cereus BAG1X2-1 NR-28578,4 µM
same,MBC,B. cereus; B. cereus G9241 NR-9564,4 µM
same,MIC,B. cereus; B. cereus G9241 NR-9564,4 µM
same,MBC,B. cereus; B. cereus VD014 NR-22141,4 µM
same,MIC,B. cereus; B. cereus VD014 NR-22141,4 µM
same,MBC,B. cereus; B. cereus VD115 NR-22148,4 µM
same,MIC,B. cereus; B. cereus VD115 NR-22148,4 µM
same,MBC,B. cereus; B. cereus VD148 NR-22150,4 µM
same,MIC,B. cereus; B. cereus VD148 NR-22150,4 µM
same,MBC,B. cereus; [9],4 µM
same,MIC,B. cereus; [9],4 µM
same,MBC,Mycobacterium smegmatis,32 µM
same,MIC,Mycobacterium smegmatis,16 µM
same,MIC,Escherichia coli O157:H7 [3]; [10],8 µM
same,MIC,Escherichia coli O157:H7 [3]; [11],>64 µM
same,MIC,"Escherichia coli O157:H7 [3]; Escherichia coli, ATCC35150",> 256 µM
same,MIC,"Escherichia coli O157:H7 [3]; Escherichia coli, ATCC700728",> 128 µM
same,MIC,Salmonella Typhimurium; [12],>64 µM
same,MIC,Salmonella Typhimurium; [13],> 128 µM
same,MBC,Bacillus anthracis; Bacillus anthracis AMES35,2 µM
same,MIC,Bacillus anthracis; Bacillus anthracis AMES35,2 µM
same,MBC,Bacillus anthracis; Bacillus anthracis UM23,2 µM
same,MIC,Bacillus anthracis; Bacillus anthracis UM23,2 µM
same,MBC,Bacillus anthracis; Bacillus anthracis Weybridge,2 µM
same,MIC,Bacillus anthracis; Bacillus anthracis Weybridge,2 µM
same,MIC,Candida albicans; [14],> 64 µM
same,MIC,Candida albicans; [15],> 64 µM
same,MIC,Candida albicans; [16],> 64 µM
same,MIC,Candida albicans; [17],> 64 µM
same,MIC,Candida albicans; [18],> 64 µM
same,MIC,Candida albicans; [19],> 64 µM
same,MIC,Candida albicans; [20],> 64 µM
same,MIC,Candida albicans; [21],> 64 µM
same,MIC,Candida albicans; [22],> 64 µM
same,MIC,Candida albicans; [23],> 64 µM
same,MIC,Acinetobacter baumannii [4]; [24],>64 µM
same,MIC,Acinetobacter baumannii [4]; [25],>64 µM
same,MIC,Acinetobacter baumannii [4]; [26],> 128 µM
same,MIC,Acinetobacter baumannii [4]; [27],> 128 µM
same,MIC,Escherichia coli O157:H7 [5]; [28],>64 µM
same,MIC,Escherichia coli O157:H7 [5]; [29],>64 µM
same,MIC,"Escherichia coli O157:H7 [5]; Escherichia coli, ATCC35150",> 128 µM
same,MIC,"Escherichia coli O157:H7 [5]; Escherichia coli, ATCC700728",> 128 µM
O=C(O)[C@@H](Cc1ccccc1)N1C(=O)/C(=C/c2cccc(Cc3ccccc3)c2)SC1=S [Rh 7],MIC,"MRSA USA300; 24 h, Media TSB + 4% HSA",> 64 µM
same,MIC,MRSA USA300; Media TSB,16 µM
same,MIC50,Bacillus Strains,4 µM
same,MIC90,Bacillus Strains,8 µM
same,MIC,Escherichia coli Δ acrAB; E.coli 1411,> 64 µM
same,MIC,Escherichia coli Δ acrAB; [6],> 64 µM
same,MIC,Klebsiella pneumoniae; [7],>64 µM
same,MIC,Klebsiella pneumoniae; [8],>64 µM
same,MIC,"Klebsiella pneumoniae; Klebsiella pneumoniae, BAA1706",> 128 µM
same,MIC,"Klebsiella pneumoniae; Klebsiella pneumoniae, BAA2146",> 128 µM
same,MIC90,[1],16 µM
same,MIC50,[1],16 µM
same,MIC,Acinetobacter baumannii [2]; ATCC13345,> 128 µM
same,MIC,Acinetobacter baumannii [2]; ATCC17786,> 128 µM
same,MBC,B. cereus; B. cereus BAG1O-2 NR-28582,4 µM
same,MIC,B. cereus; B. cereus BAG1O-2 NR-28582,4 µM
same,MBC,B. cereus; B. cereus BAG1X1-1 NR-28575,4 µM
same,MIC,B. cereus; B. cereus BAG1X1-1 NR-28575,2 µM
same,MBC,B. cereus; B. cereus BAG1X2-1 NR-28578,4 µM
same,MIC,B. cereus; B. cereus BAG1X2-1 NR-28578,4 µM
same,MBC,B. cereus; B. cereus G9241 NR-9564,8 µM
same,MIC,B. cereus; B. cereus G9241 NR-9564,8 µM
same,MBC,B. cereus; B. cereus VD014 NR-22141,4 µM
same,MIC,B. cereus; B. cereus VD014 NR-22141,4 µM
same,MBC,B. cereus; B. cereus VD115 NR-22148,4 µM
same,MIC,B. cereus; B. cereus VD115 NR-22148,4 µM
same,MBC,B. cereus; B. cereus VD148 NR-22150,4 µM
same,MIC,B. cereus; B. cereus VD148 NR-22150,4 µM
same,MBC,B. cereus; [9],4 µM
same,MIC,B. cereus; [9],4 µM
same,MBC,Mycobacterium smegmatis,16 µM
same,MIC,Mycobacterium smegmatis,16 µM
same,MIC,Escherichia coli O157:H7 [3]; [10],8 µM
same,MIC,Escherichia coli O157:H7 [3]; [11],>64 µM
same,MIC,"Escherichia coli O157:H7 [3]; Escherichia coli, ATCC35150",> 256 µM
same,MIC,"Escherichia coli O157:H7 [3]; Escherichia coli, ATCC700728",> 128 µM
same,MIC,Salmonella Typhimurium; [12],>64 µM
same,MIC,Salmonella Typhimurium; [13],> 128 µM
same,MBC,Bacillus anthracis; Bacillus anthracis AMES35,2 µM
same,MIC,Bacillus anthracis; Bacillus anthracis AMES35,2 µM
same,MBC,Bacillus anthracis; Bacillus anthracis UM23,2 µM
same,MIC,Bacillus anthracis; Bacillus anthracis UM23,2 µM
same,MBC,Bacillus anthracis; Bacillus anthracis Weybridge,2 µM
same,MIC,Bacillus anthracis; Bacillus anthracis Weybridge,2 µM
same,MIC,Candida albicans; [14],> 64 µM
same,MIC,Candida albicans; [15],> 64 µM
same,MIC,Candida albicans; [16],> 64 µM
same,MIC,Candida albicans; [17],> 64 µM
same,MIC,Candida albicans; [18],> 64 µM
same,MIC,Candida albicans; [19],64 µM
same,MIC,Candida albicans; [20],> 64 µM
same,MIC,Candida albicans; [21],> 64 µM
same,MIC,Candida albicans; [22],> 64 µM
same,MIC,Candida albicans; [23],> 64 µM
same,MIC,Acinetobacter baumannii [4]; [24],>64 µM
same,MIC,Acinetobacter baumannii [4]; [25],>64 µM
same,MIC,Acinetobacter baumannii [4]; [26],> 128 µM
same,MIC,Acinetobacter baumannii [4]; [27],> 128 µM
same,MIC,Escherichia coli O157:H7 [5]; [28],>64 µM
same,MIC,Escherichia coli O157:H7 [5]; [29],>64 µM
same,MIC,"Escherichia coli O157:H7 [5]; Escherichia coli, ATCC35150",> 128 µM
same,MIC,"Escherichia coli O157:H7 [5]; Escherichia coli, ATCC700728",> 128 µM
